Measured values taken from US6897036B2, “Fluorescent detection of peroxidase enzymes” (Lumigen, Inc., priority 2002, dated 2005).

Molecular target: T1, HRP (Armoracia rusticana, UniProt P00433)
T1 sequence (P00433 31-338): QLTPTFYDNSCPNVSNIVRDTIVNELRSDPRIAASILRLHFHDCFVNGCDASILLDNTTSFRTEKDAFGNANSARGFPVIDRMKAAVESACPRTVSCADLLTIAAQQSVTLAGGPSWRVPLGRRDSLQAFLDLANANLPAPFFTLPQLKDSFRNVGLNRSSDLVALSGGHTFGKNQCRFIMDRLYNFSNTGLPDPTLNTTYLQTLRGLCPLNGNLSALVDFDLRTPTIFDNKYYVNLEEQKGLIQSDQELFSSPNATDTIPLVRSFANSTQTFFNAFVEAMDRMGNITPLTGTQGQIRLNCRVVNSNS
Assay: Detection of HRP with acridan substrate 13 by chemiluminescence and fluorescence (FIG. 5)
Type: biochemical, horseradish
Details: 0.05 mM substrate
Protocol: FIG. 5 is a graph showing the linearity of detection of HRP using reagent compositions containing substrate 13 with fluorescence and chemiluminescence detection. A solution containing 0.05 mM compound 13, 0.1 mM 4-phenylphenol, 0.5 mM urea peroxide, 1 mM EDTA, 0.025% TWEEN 20 in 10 mM tris, pH 8.0 was reacted with the indicated quantities of HRP. Chemiluminescence intensity was measured 10 min after addition of enzyme, fluorescence at 515 nm was measured 30 min after addition of enzyme.
Chemiluminescent HRP detection limit using a reagent composition containing 0.05 mM 2′,3′,6′-trifluorophenyl 3-methoxy-10-methylacridan-9-carboxylate (compound 13), 0.1 mM 4-phenylphenol, 0.5 mM urea peroxide, 1 mM EDTA, and 0.025% TWEEN 20 in 0.01 M tris buffer, pH 8.0 was obtained on a Labsystems Luminoskan microtiter plate reader. White Microlite 1 FB 12-well strips (Dynatech Laboratories) containing 100 μL of the reagent in each well were reacted with 10 μL of HRP dilutions. Light intensity was measured at 10 min.
Sensitive detection of HRP was achieved using the reaction solutions of Example 22 producing fluorescence by the second mode. After making the chemiluminescence measurement, the strips were transferred to the fluorometer and fluorescence intensity determined at 530 nm with excitation at 380 nm.

Detectable amount of HRP (fluorescence, second mode) (tris pH 8.0, fluorescence at 530 nm, excitation 380 nm): less than 1 amol | Sensitivity of fluorescent detection compared with chemiluminescent detection (in words) (tris pH 8.0, same reaction solutions): equivalent to chemiluminescent detection
SMILES: COc1ccc2c(c1)N(C)c1ccccc1C2C(=O)Oc1c(F)ccc(F)c1F (centres unmarked) [Compound 13, 2′,3′,6′-trifluorophenyl 3-methoxy-10-methylacridan-9-carboxylate]
